Results on 79 compounds are retold here after the METLIN SMRT retention time set (Domingo-Almenara et al. 2019).

A short description of the series: gradient 5% acetonitrile 3 min, to 50% in 2 min, to 85% in 15 min, held 3 min, 100 µL/min. Conditions: column: Zorbax Extend-C18 2.1 x 50 mm; eluents: water / acetonitrile, 0.1% formic acid. The method, boiled down:
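Pure standards were run in mixtures of ~100 molecules by HPLC coupled to a quadrupole time-of-flight mass spectrometer. The column was a Zorbax Extend-C18 (2.1 × 50 mm, 1.8 μm) at 100 μL/min, with water and acetonitrile each containing 0.1% formic acid, in positive and negative ionization mode. Dead and dwell volumes were 40 μL and 900 μL. Retention time was taken from computationally picked adduct peaks, each manually inspected, with data collected over 3 months.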
Consider `O=C(NCCc1ccccc1)N1CCc2nc(-c3ccc(F)cc3)ncc2C1`, for which the RP-LC retention time is 900 s.

`CCn1nccc1C(=O)NC1CCCCC1` yielded an RP-LC retention time of 718 s.

`COc1ccc2nc3oc(C(=O)N4CCN(Cc5ccc6c(c5)OCO6)CC4)cc3cc2c1` returned an RP-LC retention time of 670 s.

`CCOC(=O)c1c(C)[nH]c(CCC(=O)NCc2cccs2)c1C` yielded an RP-LC retention time of 746 s.

In turn, `COc1ccc(-n2ccc(=O)c(-c3nc(-c4ccc(OC)c(OC)c4)no3)n2)cc1` displayed an RP-LC retention time of 788 s.

The compound `COCCNC(=O)c1ccc(CS(=O)Cc2ccccc2Cl)o1` (centres undefined) displayed an RP-LC retention time of 664 s.

In the case of `CC1=C(C(=O)OC(C)C)C(c2cc3c(cc2Br)OCO3)NC(=O)N1` (centres undefined), the RP-LC retention time came to 748 s.

On to `O=C(CN1C(=O)C2CCCCN2c2ccc(S(=O)(=O)N3CCCC3)cc21)NCC1COCCO1` (centres undefined), for which the RP-LC retention time was determined as 736 s.

Take `COC[C@@H]1CN(Cc2ccc3[nH]ccc3c2)C[C@H]1c1nc(C)no1`: the RP-LC retention time stood at 610 s.

For the compound `CCN1CCCC1CNC(=O)Cn1nc(C)n2nc(-c3ccccc3)cc2c1=O` (centres undefined), the RP-LC retention time was found to be 635 s.

The compound `COc1ccc(-c2nc3ccccn3c2Nc2ccc(C)cc2)cc1O` yielded an RP-LC retention time of 663 s.

For the compound `CCn1cc2c3c(cccc31)CN(C(=O)Nc1ccc3c(c1)OCCO3)CC2`, the RP-LC retention time amounted to 908 s.

In the case of `COc1ccc(C(=O)NCC(c2cccn2C)N2CCCC2)c(OC)c1OC` (centres undefined), the RP-LC retention time stood at 566 s.

For the compound `CCN(CC)CCNCc1ccc(-c2ccc(OC)c(Cl)c2)o1`, the RP-LC retention time was 566 s.

`CSc1ncccc1C(=O)N(Cc1ccsc1)Cc1ccccn1` had an RP-LC retention time of 690 s.

Regarding `O=C(NC1CC1)c1ccc(OCC2CCCN2C(=O)c2ccccc2F)cc1` (centres undefined), the RP-LC retention time was 751 s.

As for `COc1ccccc1CC(=O)N1CCCn2nc(-c3ccc(C)cc3)cc2C1`, the RP-LC retention time is 930 s.

Compound `Cc1nnc(-c2ccc3ccn(CC(=O)N4CCC5(CC4)OCCO5)c3c2)o1` showed an RP-LC retention time of 673 s.

The compound `O=C(Cc1csc2nc(-c3cccc(Br)c3)cn12)NCCC1=CCCCC1` had an RP-LC retention time of 1050 s.

`Cc1ccc(NC(=O)c2cc(C(C)C)n3nccc3n2)c(F)c1` came in with an RP-LC retention time of 1270 s.

As for `O=C(c1cccs1)N1CCOc2ccc(N3CCCC3)cc2C1`, the RP-LC retention time was 825 s.

In turn, `COCCCn1c(C)c(C)c(S(=O)(=O)c2ccccc2)c1NC(=O)C1CCCO1` (centres undefined) had an RP-LC retention time of 824 s.

As for `CCOC(=O)c1c(C)oc2nc(C)nc(N3CCN(c4ccc(OC)cc4)CC3)c12`, the RP-LC retention time amounted to 979 s.

Take `COc1ccc(OC)c(NC(=O)Cn2c(=O)nc(NC3CCCC3)c3ccccc32)c1`: the RP-LC retention time was found to be 740 s.

`CCC(=O)Oc1cccc(N2C(=O)c3cccc([N+](=O)[O-])c3C2=O)c1` showed an RP-LC retention time of 845 s.

`Cc1ccc(NC(=O)Cn2nc3c(N4CC(C)CC(C)C4)nccn3c2=O)cc1` (centres undefined) had an RP-LC retention time of 884 s.

Take `CCn1cc(C(=O)NCc2ccccc2)c(S(=O)(=O)N2CCSCC2)n1`: the RP-LC retention time amounted to 880 s.

`Cc1cccc(N2CCN(C(=O)C3CCCN(c4ncnc5c4nc4n5CCCCC4)C3)CC2)c1C` (centres undefined) registered an RP-LC retention time of 1090 s.

With `Cc1ccc(C)c(NC(=O)N2CCCC(Cn3c(C4CC4)nc4cccnc43)C2)c1` (centres undefined), the RP-LC retention time is 680 s.

Turning to `Brc1ccccc1Cc1nc(-c2ccn3cnnc3c2)no1`, the RP-LC retention time stood at 806 s.

In turn, `FC(F)(F)c1nc(N2CCN(C(c3ccccc3)c3ccccc3)CC2)nc2c1CCCCC2` yielded an RP-LC retention time of 559 s.

The compound `C=CCn1ccc2c(OCC(=O)Nc3ccc4c(c3)OCO4)cccc2c1=O` had an RP-LC retention time of 805 s.

On to `CN(C)c1cccc(C(=O)NC2CCN(c3cc(-c4ccc(F)cc4)[nH]n3)C2)c1` (centres undefined), for which the RP-LC retention time is 684 s.

In turn, `COc1ccc(-c2noc(-c3ccc(N4CCN(c5ccc(OC)cc5)CC4)nc3)n2)cc1` displayed an RP-LC retention time of 1240 s.

On to `COC(=O)c1cccc(C(=O)Nc2cc(Cl)ccc2C)n1`, for which the RP-LC retention time turned out to be 999 s.

Turning to `CC(C)NC(=O)C1CCN(c2nc3ccc(-c4ccccc4)nc3s2)CC1`, the RP-LC retention time turned out to be 927 s.

Take `O=S(=O)(c1cccc(-c2nnc(-c3ccccc3Br)o2)c1)N1CCOCC1`: the RP-LC retention time was 940 s.

In turn, `CCN1CCN(C(=S)Nc2ccc3nc(N4CCN(CC)CC4)cc(C)c3c2)CC1` displayed an RP-LC retention time of 519 s.

`CCOC(=O)C(C)NC(=O)Nc1cc(F)c2nc(N3CCOCC3)ccc2c1` (centres undefined) gave an RP-LC retention time of 812 s.

Take `O=S(=O)(Nc1ccc(Cl)cc1)c1c[nH]c2ncccc12`: the RP-LC retention time worked out at 750 s.

`CCNC(=O)NC1CCN(c2nc3cccnc3n(Cc3ccccc3)c2=O)CC1`: the RP-LC retention time was 877 s.

For the compound `O=S(=O)(c1ccc(Cl)cc1)N1CCc2nc(-c3ccccc3)ncc2C1`, the RP-LC retention time was found to be 1080 s.

For `CCOc1ccccc1NC(=O)N1CCc2nc(-c3ccc(Cl)cc3)ncc2C1`, the RP-LC retention time is 1170 s.

The compound `COc1ccc(C(=O)N2CCN3CCS(=O)(=O)N(C4CC4)C(=O)C3C2)c(OC)c1` (centres undefined) gave an RP-LC retention time of 711 s.

Compound `CCc1nc2cccnc2n1-c1ccc(C(=O)NC)cc1` returned an RP-LC retention time of 659 s.

Take `O=C(NCc1cccc(F)c1)C1c2ccccc2CCN1C(=O)C1CC1` (centres undefined): the RP-LC retention time was 840 s.

Regarding `CCc1cccc(NS(=O)(=O)c2cc(-c3[nH]ncc3C(=O)N(C)C)oc2C)c1`, the RP-LC retention time is 718 s.

The compound `COc1cccc(NC(=O)N2CCc3nc(-c4ccccc4)ncc3C2)c1` displayed an RP-LC retention time of 884 s.

As to `COc1ncc(C(=O)NCCc2ccc(S(N)(=O)=O)cc2)cn1`, the RP-LC retention time turned out to be 608 s.

`CC1(C(=O)NCc2ccccc2)Cn2cnc(C(=O)N3CCc4ccccc43)c2C(=O)N1C1CC1` (centres undefined): the RP-LC retention time was 720 s.

On to `CCCc1ccc(S(=O)(=O)N2CCC(n3c(-c4ccoc4)nc4cccnc43)C2)cc1` (centres undefined), for which the RP-LC retention time was found to be 1020 s.

Regarding `COCCN1CCC(N2CCN(S(=O)(=O)c3ccc(F)c(Cl)c3)CC2)C1=O` (centres undefined), the RP-LC retention time came to 620 s.

Compound `Cc1ccc(Nc2cc(C)nc3ccnn23)cc1` gave an RP-LC retention time of 620 s.

`CCCn1cc(C(=O)NCCN2CCc3ccccc3C2)c2cccnc21` displayed an RP-LC retention time of 648 s.

As to `COc1ccc(C(C)NC(=O)C2CCN(C(=O)c3ncn4c3COC(c3ccccc3)C4)CC2)cc1` (centres undefined), the RP-LC retention time is 754 s.

In turn, `CCOc1cc(C(=O)N2CCN(c3cc(-c4ccc(Cl)cc4)[nH]n3)CC2)cc(OCC)c1OCC` gave an RP-LC retention time of 997 s.

`Fc1ccc(-c2noc(-c3ccc(NCC4CCCO4)nc3)n2)cc1` (centres undefined) registered an RP-LC retention time of 940 s.

In turn, `Cc1noc2nc(CCC(=O)NCCCN3CCc4ccccc4C3)nc(N3CCC(C)CC3)c12` gave an RP-LC retention time of 703 s.

For `O=C(NCc1ccco1)c1ccc2cnn(Cc3cccc(Cl)c3)c2c1`, the RP-LC retention time was 947 s.

`O=C(NCc1ccc2c(c1)CCCN2C(=O)C1CCC1)c1cc(F)cc(F)c1`: the RP-LC retention time was 934 s.

`CCc1c(C)nc2nc(-c3ccccc3)nn2c1Nc1cc(OC)ccc1OC` returned an RP-LC retention time of 972 s.

`Cc1nnc(-c2ccc3ccn(CC(=O)N4CCN(c5ncccn5)CC4)c3c2)o1`: the RP-LC retention time is 692 s.

In turn, `CCCOc1nc2ccccc2nc1N1CCCC(C(=O)Nc2cccc(C(=O)OCC)c2)C1` (centres undefined) registered an RP-LC retention time of 1340 s.

In the case of `Cn1cc(S(=O)(=O)N2CCOCC2)cc1C(=O)N1CCN(c2ccccn2)CC1`, the RP-LC retention time is 574 s.

Turning to `O=C(CCCS(=O)(=O)c1ccc(F)cc1)Nc1ncnc2sccc12`, the RP-LC retention time worked out at 649 s.

In turn, `COc1cc(OC)cc(-c2nc(-c3ccc(-n4ccnc4)nc3)no2)c1` returned an RP-LC retention time of 769 s.

In turn, `Cc1ccc(N2CCC(NC(=O)c3cc(F)cc(F)c3)C2=O)cc1` (centres undefined) registered an RP-LC retention time of 858 s.

The compound `CCOc1ccccc1CNC(=O)C1CCCN(c2nnc(C)c3c(C)n(-c4ccccc4)nc23)C1` (centres undefined) came in with an RP-LC retention time of 774 s.

On to `COc1cccc(N2CCN(C(=O)C3CCN(S(=O)(=O)c4cn(C(C)C)cn4)CC3)CC2)c1`, for which the RP-LC retention time was 764 s.

The compound `CCOC(=O)c1cc(S(=O)(=O)N2CCCC2C(=O)NC2CCCC2)cn1C` (centres undefined) registered an RP-LC retention time of 732 s.

Consider `COc1ccc(OC)c(NC(=O)N2CCc3c(c(-c4nnc(-c5ccc(F)cc5)o4)nn3C)C2)c1`, for which the RP-LC retention time worked out at 876 s.

Consider `Cc1cc(C)cc(NC(=O)Cn2ncc3c(c2=O)N(C2CC2)C(=O)CS3)c1`, for which the RP-LC retention time stood at 797 s.

Compound `Cc1cc(C)cc(NC(=O)Cn2c(C)cc(-c3nnc(C)o3)c2C)c1` had an RP-LC retention time of 843 s.

`COCCNC(=O)C1CCN(C(=O)c2ncn3c2COC(c2ccc(OC)cc2)C3)CC1` (centres undefined) displayed an RP-LC retention time of 658 s.

`Cc1cccc(-c2nc(N3CCCC3)ncc2C(=O)O)c1` displayed an RP-LC retention time of 819 s.

As to `Cc1noc(C)c1C1CCCN1C(=O)c1cccc(C#N)c1` (centres undefined), the RP-LC retention time turned out to be 767 s.

`CCOC(=O)c1c(NC(=O)CN2CCN(c3ncccn3)CC2)sc2c1CCC2` registered an RP-LC retention time of 1080 s.

In the case of `CCN(CC)c1nc2cc(C(=O)NCC3CC3)ccc2c(=O)n1Cc1ccc(C)cc1`, the RP-LC retention time amounted to 1090 s.

`CCc1nc2cc(-c3noc(/C=C/c4ccco4)n3)ccc2o1` displayed an RP-LC retention time of 1090 s.
